The values below are quoted from earlier work in PMC3853718 (Journal of Translational Medicine, 2013).

Like-named read-outs stand apart in the source and are kept apart here.

The data set concerns Rb phosphorylation. As to conditions: cited from earlier work.

With `CCc1cnn2c(NCc3ccc[n+]([O-])c3)cc(N3CCCC[C@H]3CCO)nc12` [dinaciclib], the “Rb phosphorylation in mouse skin biopsies” value is reported as “partial loss” (2 hours post treatment) and “complete loss of Rb phosphorylation” (4 hours post treatment).
